Patent US20150320723A1, “Use of Small Molecule Unfolder Protein Response Modulators to Treat Tumors With Active Sonic Hedgehog (SSH) Signaling Due To Smoothened (SMO) Mutation” (ST. JUDE CHILDREN'S RESEARCH HOSPITAL, priority 2013, published 2015)
“Also recorded” adds a separate entry of the source. Residues, ends and D or L forms follow the SMILES beside them. *: point of attachment. Cbz = O=C(OCc1ccccc1)*

Columns and labels:
[1] = system: unfolded protein response (UPR) in myeloma cells; settings: cited from earlier work
oncogenic SmoM2 protein = experiment: Initial testing of compounds: SmoM2 protein stability in cultured mouse NIH3T3 cells; format: cell-based
Description: The four ER stress/UPR modulating compounds listed below (abbreviated and commercial names in parentheses) destabilize oncogenic SmoM2 protein in cultured mouse NIH3T3 cells. • 1. 17-N-Allylamino-17-demethoxygeldanamycin (17-AAG, KOS-953,Tanespimycin), • 2. 17-Dimethylaminoethylamino-17-demethoxygeldanamycin (17-DMAG, KOS-1022, Alvespimycin), • 3. 4-(6,6-dimethyl-4-oxo-3-(trifluoromethyl)-4,5,6,7-tetrahydroindazol-1-yl)-2-((1r,4r)-4-hydroxycyclohexylamino)benzamide (SNX-2112) • 4. Eeyarestatin I (EerI).

[2] = system: wild type, C318A and M2 mSmo proteins; experiment: Temperature sensitivity analysis at 40° C. with the proteasome inhibitor MG132, western blot, NIH3T3 cells; format: cell-based, mouse
Description: Given that the bulk of mSmoC318A and mSmoM2 are ER-localized, it was reasoned that, like the active Drosophila mutants, they would be affected by induction of a thermal ER stress response. Thermal ER stress has been observed in mammalian cells cultured at 40° C. (Xu et al., 2011 [53]). Accordingly, it was observed induction of the ER stress response transcription factor CHOP in NIH3T3 cells incubated at this high temperature for 2-4 hours (FIG. 5C). To assess the effect of thermal ER stress on mSmo proteins, wild type, C318A or mSmoM2 was expressed in NIH3T3 cells cultured at 37° C., then shifted to 40° C. for 4 hours prior to whole-cell lysis (FIG. 5C′). […] (FIG. 5C′ lanes 3-6 compared to 1-2). This destabilization is the likely result of ER-associated protein degradation (ERAD), as the ER-resident forms of all three Smo variants were stabilized at 40° C. by the proteasome inhibitor MG132 (FIG. 5C′ white arrowhead, lanes 8, 10 and 12 compared to 7, 9 and 11). The post-ER form of wild type Smo was not altered by MG132 treatment (FIG. 5C′ black arrowhead, lanes 7-8).
For protein stability analysis in mammalian cells, ˜1×10^6NIH3T3 cells were transfected with 2 ug of wild type or mutant pcDNA3.1-amino expression vector (Carroll et al., 2012 [31]). For temperature sensitivity analysis, transfected cells were maintained at 37° C. for ˜44 hours, and then shifted to 40° C. for 4 hours prior to lysis. Whole-cell lysates were prepared in modified RIPA buffer (50 mM Tris-HCl, pH 7.4, 150 mM NaCl, 0.25% deoxycholic acid, 1% NP-40, 1 mM EDTA, 0.1% SDS, 0.5 mM DTT, and 1× PIC (Roche)) by rocking for 30 minutes at 4° C. as described (Nachtergaele et al., 2012 [62]). Cell extracts were cleared by centrifuging at 16,000×g at 4° C. for 45 minutes. Supernatants were collected and analyzed by SDS-Page and western blot using anti-GADD153/CHOP (B-3, SCBT) anti-Smo (E5, SCBT) and anti-tubulin (Cell Signaling) antibodies. […] Whole-cell lysates were prepared in modified RIPA buffer and analyzed as above.

[3] = cited from earlier work

For C=CCNC1=C2C[C@@H](C)C[C@H](OC)[C@H](O)[C@@H](C)/C=C(\C)[C@H](OC(N)=O)[C@@H](OC)/C=C\C=C(/C)C(=O)NC(=CC1=O)C2=O [17-AAG, 17-N-Allylamino-17-demethoxygeldanamycin], the “activation of the branches of the UPR” value [1] is given as “capable of activating all three branches of the UPR” and the “effect on oncogenic SmoM2 protein” value (oncogenic SmoM2 protein) is given as “destabilize”.
In the case of CC(C)C[C@@H](C=O)NC(=O)[C@H](CC(C)C)NC(=O)[C@H](CC(C)C)NC(=O)OCc1ccccc1 [MG132] (Cbz-Leu-Leu-Leu-aldehyde), the “ER-resident forms of all three Smo variants (wild type, C318A, M2): protein stability” value ([2]; NIH3T3 cells shifted to 40° C. for 4 hours, MG132 treatment) is reported as “stabilized”, the “post-ER form of wild type Smo” value ([2]; NIH3T3 cells shifted to 40° C., MG132 treatment) is reported as “unaffected; also recorded: not altered” and the “destabilization of the ER-resident forms of wild type and both mutants at 40° C.” value ([2]; NIH3T3 cells shifted to 40° C., MG132 treatment (FIG. 5C' legend)) is reported as “attenuated”.
For C[C@@H]1C[C@H]2O[C@@H]2/C=C\C=C\C(=O)Cc2c(Cl)c(O)cc(O)c2C(=O)O1 [radicicol], the “activation of the branches of the UPR” value [1] is given as “capable of activating all three branches of the UPR”.
In the case of CO[C@H]1/C=C\C=C(/C)C(=O)NC2=CC(=O)C(NCCN(C)C)=C(C[C@@H](C)C[C@H](OC)[C@H](O)[C@@H](C)/C=C(\C)[C@@H]1OC(N)=O)C2=O [17-DMAG, 17-Dimethylaminoethylamino-17-demethoxygeldanamycin], the “effect on oncogenic SmoM2 protein” value (oncogenic SmoM2 protein) is reported as “destabilize”.
For CC1(C)C(N(O)C(=O)Nc2ccc(Cl)cc2)N(c2ccc(Cl)cc2)C(=O)N1CC(=O)NN=CC=Cc1ccc([N+](=O)[O-])o1 (stereo not shown) [Eeyarestatin I, 3-(4-Chlorophenyl)-4-[[[(4-chlorophenyl)amino]carbonyl]hydroxyamino]-5,5-dimethyl-2-oxo-1-imidazolidineacetic acid 2-[3-(5-nitro-2-furanyl)-2-propen-1-ylidene]hydrazide], the “effect on oncogenic SmoM2 protein” value (oncogenic SmoM2 protein) was “destabilize”.
For CC1(C)CC(=O)c2c(C(F)(F)F)nn(-c3ccc(C(N)=O)c(N[C@H]4CC[C@H](O)CC4)c3)c2C1 [SNX-2112, 4-(6,6-dimethyl-4-oxo-3-(trifluoromethyl)-4,5,6,7-tetrahydroindazol-1-yl)-2-((1r,4r)-4-hydroxycyclohexylamino)benzamide], the “effect on oncogenic SmoM2 protein” value (oncogenic SmoM2 protein) was “destabilize”.
In the case of C/C=C(/C)C(=O)O[C@H]1C(C)=C2[C@H]([C@@H]1OC(=O)CCCCCCC)[C@@](C)(OC(C)=O)C[C@H](OC(=O)CCCCCCCCCCCNC(=O)C[C@H](N)C(=O)N[C@@H](CCC(=O)N[C@@H](CCC(=O)N[C@@H](CCC(=O)N[C@@H](CCC(=O)O)C(=O)O)C(=O)O)C(=O)O)C(=O)O)[C@@]1(O)[C@H]2OC(=O)[C@@]1(C)O [G-202], the “in vivo toxicity relative to thapsigargin” value [3] is listed as “significantly reduced”.
